Assay results published in patent publication US4379159A, “Antiinflammatory 2-substituted-thio-4,5-dihydro-4,5-diaryl-1H-imidazoles” (E. I. Du Pont de Nemours & Company, priority 1980, dated 1983).

Legend:
[1] = tested on: adjuvant-induced arthritis in rats; assay: Established Adjuvant-Induced Arthritis in Rats; type: in vivo, rat (Lewis (Wistar) male rats); settings: oral gavage once daily 7 days (days 14-20), paw volume on day 21; for ED50: Rattus norvegicus, ED50% for decrease from control paw volume, estimated by inspection of dose-response regression lines
[2] = tested on: adjuvant arthritis; settings: background statement; cited from earlier work
[3] = tested on: arthritis; settings: background statement; cited from earlier work

CSC1=NC(c2ccc(Cl)cc2)C(c2ccc(Cl)cc2)N1.Cl (centres unmarked) [Example 1, 4,5-Bis(4-chlorophenyl)-4,5-dihydro-2-(methylthio)-1H-imidazole Hydrochloride]
ED50 [1]: 60 mg/kg

C=CCSC1=NC(c2ccc(Cl)cc2)C(c2ccc(Cl)cc2)N1.Cl (centres unmarked) [Example 2, 4,5-Bis(4-chlorophenyl)-4,5-dihydro-2-(allylthio)-1H-imidazole Hydrochloride]
percent reduction in paw volume at the indicated dose ([1]; at 25 mg/kg): 28%

Cl.FC(F)(F)CSC1=NC(c2ccc(Cl)cc2)C(c2ccc(Cl)cc2)N1 (centres unmarked) [Example 3, 4,5-Bis(4-chlorophenyl)-4,5-dihydro-2-(2,2,2-trifluoroethylthio)-1H-imidazole Hydrochloride]
ED50 [1]: 25 mg/kg

c1ccc([C@H]2CN3CCSC3=N2)cc1 [Levamisole, 2,3,5,6-Tetrahydro-6-phenylimidazole-[2,1-b]thiazole]
activity in an adjuvant arthritis test [2]: inactive
clinical efficacy as an antiarthritic [3]: has shown clinical efficacy
